Experiments:
[1] = test system: Human oral squamous cells carcinoma Cal27; assay: growth inhibition of tumor cell Cal27 (SRB staining); type: cell-based; conditions: for growth inhibition rate / inhibition at 100 µM / inhibition at 10 µM / inhibition at 1 µM / inhibition at 0.1 µM / inhibition at 0.01 µM: 72 hours, SRB; for efficacy: Cal27, assessment of results; for inhibition at 100 µM / inhibition at 10 µM / inhibition at 1 µM / inhibition at 0.1 µM / inhibition at 0.01 µM: Homo sapiens, CAL-27, read-out: growth inhibition rate
Text: (§1) The compounds synthesized from the present invention were studied by sulforhodamine B protein staining (sulfothodalnine B, SRB) and miceroculture tetrazolinetetrozohuln (MTT) colorimetric method respectively for in vitro anti-tumor activity (Cancer Res., 1988, 48 (3): 589).
(§2) The concentration gradient of the test compounds of the present invention is 10^−4M, 10^−5M, 10^−6M, 10^−7M, 10^−8M, and the test compounds are 6-methoxy methyl ester gambogenic acid, ethyl ester gambogenic acid, 6-ethoxy ethyl ester gambogenic acid, 6-acyl gambogenic acid, piperidine gambogenic acid, diethylamide gambogenic acyl, morpholine gambogenic acid, and 12-hydroxy gambogenic acid, and 8,9-epoxy gambogenic acid. The test compounds and positive control gambogenic acid were diluted with dimethyl sulfoxide. Inhibition rate(%)=[(control group OD value−administered group OD value)/control group OD value]×100%
Human oral squamous cells carcinoma Cal27 were cultured in DMEM containing 10% fetal bovine serum (FBS), the cells with long-growth phase were forming suspension and culturing in 96-well plates. 10 μl test compounds of different concentrations as experimental group were added into each well of the 96-well plates. Blank control group received an equal volume containing the highest concentration of solvent (ie, 10^−4M dimethyl sulfoxide) in DMEM. After incubation at 37° C. under 5% carbon dioxide conditions for 72 hours, the cells were fixed with trichloroacetic acid, and each well was added with 100 μl SRB solution, unbound SRB was washed away, and then OD values were measured at 550 nm by an automatic plate reader spectrophotometer. A tumor cell group without drugs is a blank control group.

[2] = test system: Human breast cancer cells MCF-7; assay: growth inhibition of tumor cell MCF-7 (MTT colorimetric method); type: cell-based; conditions: for growth inhibition rate / inhibition at 100 µM / inhibition at 10 µM / inhibition at 1 µM / inhibition at 0.1 µM / inhibition at 0.01 µM: 72 hours, MTT; for efficacy: MCF-7, assessment of results; for inhibition at 100 µM / inhibition at 10 µM / inhibition at 1 µM / inhibition at 0.1 µM / inhibition at 0.01 µM: Homo sapiens, MCF7, read-out: growth inhibition rate
Text: as §1, §2
Human breast cancer cells MCF-7 were cultured in DMEM containing 10% FBS, the cell with long-growth phase was formed into suspension and cultured in 96-well plates. The test compounds as experimental group with different concentrations were added into each well of the 96-well plates. Blank control group received an equal volume containing the highest concentration of solvent (ie, 10^−4M dimethyl sulfoxide) in DMEM. After incubation at 37° C. under 5% carbon dioxide conditions for 72 hours, each well was added with MTT to 1 mg/ml final concentration for incubation for 4 hours. The supernatant solution in each well was aspirated and added with 200 μl DMSO to dissolve crystals, and then OD values were measured at 490 nm by an automatic plate reader spectrophotometer. A tumor cell group without drugs is a blank control group.

Row | Compound | growth inhibition rate ([1]; Cal27, 10^−4M) [%] | growth inhibition rate ([1]; Cal27, 10^−5M) [%] | growth inhibition rate ([1]; Cal27, 10^−6M) [%] | growth inhibition rate ([1]; Cal27, 10^−7M) [%] | growth inhibition rate ([1]; Cal27, 10^−8M) [%] | efficacy [1] | growth inhibition rate ([2]; MCF-7, 10^−4M) [%] | growth inhibition rate ([2]; MCF-7, 10^−5M) [%] | growth inhibition rate ([2]; MCF-7, 10^−6M) [%] | growth inhibition rate ([2]; MCF-7, 10^−7M) [%] | growth inhibition rate ([2]; MCF-7, 10^−8M) [%] | efficacy [2] | inhibition at 100 µM ([1]; Cal27, 10^−4M) [%] | inhibition at 10 µM ([1]; Cal27, 10^−5M) [%] | inhibition at 1 µM ([1]; Cal27, 10^−6M) [%] | inhibition at 0.1 µM ([1]; Cal27, 10^−7M) [%] | inhibition at 0.01 µM ([1]; Cal27, 10^−8M) [%] | inhibition at 100 µM ([2]; MCF-7, 10^−4M) [%] | inhibition at 10 µM ([2]; MCF-7, 10^−5M) [%] | inhibition at 1 µM ([2]; MCF-7, 10^−6M) [%] | further results
1 | 6-acyl gambogenic acid | 100 | 100 | 96 | 0 | 0 | potent (Potent: 10^−6M inhibition rate≧75% or 10^−7M inhibition rate>50%) | 100 | 100 | 83 | 0 | 0 | potent (Potent: 10^−6M inhibition rate≧75% or 10^−7M inhibition rate>50%) | – | – | – | – | – | – | – | – | –
2 | COC(=O)/C(C)=C\CC12OC(C)(C)C3CC(C=C4C(=O)c5c(OC)c(C/C=C(\C)CCC=C(C)C)c(O)c(CC=C(C)C)c5OC431)C2=O (stereo not drawn) [6-methoxy methyl ester gambogenic acid] | 100 | 100 | 100 | 0 | 0 | potent (Potent: 10^−6M inhibition rate≧75% or 10^−7M inhibition rate>50%) | 100 | 100 | 80 | 0 | 0 | potent (Potent: 10^−6M inhibition rate≧75% or 10^−7M inhibition rate>50%) | – | – | – | – | – | – | – | – | –
3 | CC(C)=CCC/C(C)=C/Cc1c(O)c(CC=C(C)C)c2c(c1O)C(=O)C1=CC3CC4C(C)(C)OC(C/C=C(\C)C(=O)O)(CC3O)C14O2 (stereo not drawn) [12-hydroxy gambogenic acid] | – | – | – | – | – | potent (Potent: 10^−6M inhibition rate≧75% or 10^−7M inhibition rate>50%) | – | – | – | – | – | potent (Potent: 10^−6M inhibition rate≧75% or 10^−7M inhibition rate>50%) | 100 | 100 | 100 | 0 | 0 | 100 | 100 | 82 | inhibition at 0.1 µM ([2]; MCF-7, 10^−7M): 0%; inhibition at 0.01 µM ([2]; MCF-7, 10^−8M): 0%
4 | CC(C)=CCC/C(C)=C/Cc1c(O)c(CC=C(C)C)c2c(c1O)C(=O)C13OC1C1CC4C(C)(C)OC(C/C=C(\C)C(=O)O)(CC1=O)C43O2 (stereo not drawn) [8,9-epoxy gambogenic acid] | – | – | – | – | – | potent (Potent: 10^−6M inhibition rate≧75% or 10^−7M inhibition rate>50%) | – | – | – | – | – | potent (Potent: 10^−6M inhibition rate≧75% or 10^−7M inhibition rate>50%) | 100 | 100 | 100 | 0 | 0 | 100 | 100 | 80 | inhibition at 0.1 µM ([2]; MCF-7, 10^−7M): 0%; inhibition at 0.01 µM ([2]; MCF-7, 10^−8M): 0%
5 | CCN(CC)C(=O)/C(C)=C\CC12OC(C)(C)C3CC(C=C4C(=O)c5c(O)c(C/C=C(\C)CCC=C(C)C)c(O)c(CC=C(C)C)c5OC431)C2=O (stereo not drawn) [diethylamide gambogenic acyl] | 100 | 100 | 100 | 23 | 0 | potent (Potent: 10^−6M inhibition rate≧75% or 10^−7M inhibition rate>50%) | 100 | 100 | 84 | 0 | 0 | potent (Potent: 10^−6M inhibition rate≧75% or 10^−7M inhibition rate>50%) | – | – | – | – | – | – | – | – | –

Reference: patent publication US9187491B2, “Gambogenic acid derivatives, preparation method and application thereof” (Ninth People's Hospital, School Medicine Shanghai Jiao Tong …, priority 2012, dated 2015)
